Assays:
Digitaria sanguinalis = assay: Field trial, burndown weed control on grasses; format: in vivo; settings: g ai/ha: saflufenacil 140, metribuzin 1150, pendimethalin 500 alone
Experimental: (§1) Studies were conducted to compare the weed controlling activity of the combination of saflufenacil, a triazine herbicide and pendimethalin. […] Any difference between the observed and “expected” efficacy could be attributed to synergy between the compounds in the control of a broad spectrum of weeds. The expected efficacy of a combination of saflufenacil, a triazine herbicide and an pendimethalin was calculated using the well-established Colby method.
(§2) In the Colby method, the expected (or predicted) response of a combination of herbicides is calculated by taking the product of the observed response for each individual component of the combination when applied alone divided by 100 and subtracting this value from the sum of the observed response for each component when applied alone. An unexpected enhancement in efficacy of the combination is then determined by comparing the observed response of the combination to the expected (or predicted) response as calculated from the observed response of each Individual component alone. If the observed response of the combination is greater than the expected (or predicted) response, or stated conversely, if the difference between the observed and expected response is greater than zero, then the combination is said to be synergistic or unexpectedly effective. (Colby, S. R., Weeds, 1967(15), p. 20-22) The Colby method requires only a single dose of each herbicide applied alone and the mixture of both doses.
(§3) The weed control activity of the individual herbicides of the invention and their combinations were evaluated on weeds such as those belonging to Echinochloa colona, Digitaria sanguinalis, Amaranthus viridis, Commelina benghalensis, and Cyperus rotundus. The trial was carried out in Randomized Complete Block (RCB) method. Each trial was replicated four times and conducted under GEP guidelines. Application volumes were varied for each mixture. Such field trials were carried out at various locations so as to generate independent data, the locations were chosen randomly across India. Saflufenacil, metribuzin and pendimethalin were sprayed according to their recommended dosage.
(§4) The following formula was used to calculate the expected activity of mixtures containing three active ingredients, A, B and C:
(§5) A=observed efficacy of active ingredient A at the same concentration as used in the mixture.
(§6) B=observed efficacy of active ingredient B at the same concentration as used in the mixture.
(§7) C=observed efficacy of active ingredient C at the same concentration as Used in the mixture.

Echinochloa colona = assay: Field trial, burndown weed control on grasses; format: in vivo; settings: g ai/ha: saflufenacil 140, metribuzin 1150, pendimethalin 500 alone
Experimental: as §1, §2, §3, §4, §5, §6, §7

Eleucine indica [1] = assay: Field trial, burndown weed control on grasses; format: in vivo; settings: g ai/ha: saflufenacil 140, metribuzin 1150, pendimethalin 500 alone, mixture 140 + 1150 + 500
Experimental: as §1, §2, §3, §4, §5, §6, §7

Cyperus rotundus = assay: Field trial, burndown weed control on sedges; format: in vivo; settings: g ai/ha: saflufenacil 140, metribuzin 1150, pendimethalin 500 alone, mixture 112 + 920 + 571
Experimental: Studies were conducted to compare the weed controlling activity of the combination of saflufenacil, a triazine herbicide and pendimethalin. […] Any difference between the observed and “expected” efficacy could be attributed to synergy between the compounds in the control of a broad spectrum of weeds. The expected efficacy of a combination of saflufenacil, a triazine herbicide and an pendimethalin was calculated using the well-established Colby method. […] An unexpected enhancement in efficacy of the combination is then determined by comparing the observed response of the combination to the expected (or predicted) response as calculated from the observed response of each Individual component alone. If the observed response of the combination is greater than the expected (or predicted) response, or stated conversely, if the difference between the observed and expected response is greater than zero, then the combination is said to be synergistic or unexpectedly effective. (Colby, S. R., Weeds, 1967(15), p. 20-22) The Colby method requires only a single dose of each herbicide applied alone and the mixture of both doses. The weed control activity of the individual herbicides of the invention and their combinations were evaluated on weeds such as those belonging to Echinochloa colona, Digitaria sanguinalis, Amaranthus viridis, Commelina benghalensis, and Cyperus rotundus. The trial was carried out in Randomized Complete Block (RCB) method. Each trial was replicated four times and conducted under GEP guidelines. Application volumes were varied for each mixture. Such field trials were carried out at various locations so as to generate independent data, the locations were chosen randomly across India. Saflufenacil, metribuzin and pendimethalin were sprayed according to their recommended dosage. The following formula was used to calculate the expected activity of mixtures containing three active ingredients, A, B and C: [formula] • Where A=observed efficacy of active ingredient A at the same concentration as used in the mixture. B=observed efficacy of active ingredient B at the same concentration as used in the mixture. C=observed efficacy of active ingredient C at the same concentration as Used in the mixture.

Digera sp. = assay: Field trial, burndown weed control on broadleaf weeds; format: in vivo; settings: g ai/ha: saflufenacil 140, metribuzin 1150, pendimethalin 500 alone, mixture 112 + 920 + 571
Experimental: as §1, §2, §3, §4, §5, §6, §7

Eleucine indica [2] = assay: Field trial, burndown weed control on grasses; format: in vivo; settings: 15 DAA; g ai/ha: saflufenacil 140, metribuzin 1150, pendimethalin 500 alone; mixture 112 + 920 + 571
weeds = settings: saflufenacil alone; cited from earlier work
[3] = 15 DAA, mixture 112 + 920 + 571
[4] = 15 DAA, mixture 140 + 1150 + 500
[5] = Table 3, 30 DAA, mixture 140 + 1150 + 500
[6] = Table 4, 30 DAA, mixture 140 + 1150 + 500

Structure (SMILES): CSc1nnc(C(C)(C)C)c(=O)n1N [Metribuzin, 4-amino-6-tert-butyl-4,5-dihydro-3-methylthio-1,2,4-triazin-5-one]
- % Weed control Burn Down Symptoms Generation, Digitaria sanguinalis, Actual (Digitaria sanguinalis; [3]): 13.3%
- % Weed control Burn Down Symptoms Generation, Digitaria sanguinalis, Actual (Digitaria sanguinalis; [4]): 13.3%
- % Weed control Burn Down Symptoms Generation, Digitaria sanguinalis, Actual (Digitaria sanguinalis; [5]): 10%
- % Weed control Burn Down Symptoms Generation, Digitaria sanguinalis, Actual (Digitaria sanguinalis; [6]): 10%
- % Weed control Burn Down Symptoms Generation, Echinochloa colona, Actual (Echinochloa colona; [3]): 6.7%
- % Weed control Burn Down Symptoms Generation, Echinochloa colona, Actual (Echinochloa colona; [4]): 6.7%
- % Weed control Burn Down Symptoms Generation, Echinochloa colona, Actual (Echinochloa colona; [5]): 10%
- % Weed control Burn Down Symptoms Generation, Echinochloa colona, Actual (Echinochloa colona; [6]): 10%
- % Weed control Burn Down Symptoms Generation, Eleucine indica, Actual (Eleucine indica [1]; 15 DAA): 8.3%
- % Weed control Burn Down Symptoms Generation, Eleucine indica, Actual (Eleucine indica [1]; Table 3, 30 DAA): 5.7%
- % Weed control Burn Down Symptoms Generation, Eleucine indica, Actual (Eleucine indica [1]; Table 4, 30 DAA): 5.7%
- % Weed control Burn Down Symptoms Generation, Cyperus rotundus at 15 DAA, Actual (Cyperus rotundus): 6.7%
- % Weed control Burn Down Symptoms Generation, Cyperus rotundus at 30 DAA, Actual (Cyperus rotundus): 8.3%
- % Weed control Burn Down Symptoms Generation, Digera sp. at 15 DAA, Actual (Digera sp.): 8.3%
- % Weed control Burn Down Symptoms Generation, Digera sp. at 30 DAA, Actual (Digera sp.): 8.3%
- % Weed control Burn Down Symptoms Generation, Eleucine indica, Actual (Eleucine indica [2]): 8.3%

Structure (SMILES): CCC(CC)Nc1c([N+](=O)[O-])cc(C)c(C)c1[N+](=O)[O-] [Pendimethalin, N-(1-ethylpropyl)-2,6-dinitro-3,4-xylidine]
- % Weed control Burn Down Symptoms Generation, Digitaria sanguinalis, Actual (Digitaria sanguinalis; [3]): 56.7%
- % Weed control Burn Down Symptoms Generation, Digitaria sanguinalis, Actual (Digitaria sanguinalis; [4]): 56.7%
- % Weed control Burn Down Symptoms Generation, Digitaria sanguinalis, Actual (Digitaria sanguinalis; [5]): 50%
- % Weed control Burn Down Symptoms Generation, Digitaria sanguinalis, Actual (Digitaria sanguinalis; [6]): 50%
- % Weed control Burn Down Symptoms Generation, Echinochloa colona, Actual (Echinochloa colona; [3]): 58.3%
- % Weed control Burn Down Symptoms Generation, Echinochloa colona, Actual (Echinochloa colona; [4]): 58.3%
- % Weed control Burn Down Symptoms Generation, Echinochloa colona, Actual (Echinochloa colona; [5]): 53.3%
- % Weed control Burn Down Symptoms Generation, Echinochloa colona, Actual (Echinochloa colona; [6]): 53.3%
- % Weed control Burn Down Symptoms Generation, Eleucine indica, Actual (Eleucine indica [1]; 15 DAA): 46.7%
- % Weed control Burn Down Symptoms Generation, Eleucine indica, Actual (Eleucine indica [1]; Table 3, 30 DAA): 45%
- % Weed control Burn Down Symptoms Generation, Eleucine indica, Actual (Eleucine indica [1]; Table 4, 30 DAA): 45%
- % Weed control Burn Down Symptoms Generation, Cyperus rotundus at 15 DAA, Actual (Cyperus rotundus): 31.7%
- % Weed control Burn Down Symptoms Generation, Cyperus rotundus at 30 DAA, Actual (Cyperus rotundus): 25%
- % Weed control Burn Down Symptoms Generation, Digera sp. at 15 DAA, Actual (Digera sp.): 66.7%
- % Weed control Burn Down Symptoms Generation, Digera sp. at 30 DAA, Actual (Digera sp.): 7.0%
- % Weed control Burn Down Symptoms Generation, Eleucine indica, Actual (Eleucine indica [2]): 46.7%

Structure (SMILES): CC(C)N(C)S(=O)(=O)NC(=O)c1cc(-n2c(=O)cc(C(F)(F)F)n(C)c2=O)c(F)cc1Cl [Saflufenacil, N′-{2-chloro-4-fluoro-5-[1,2,3,6-tetrahydro-3-methyl-2,6-dioxo-4-(trifluoromethyl)pyrimidin-1-yl]benzoyl}-N-isopropyl-N-methylsulfamide]
- % Weed control Burn Down Symptoms Generation, Digitaria sanguinalis, Actual (Digitaria sanguinalis; [3]): 56.7%
- % Weed control Burn Down Symptoms Generation, Digitaria sanguinalis, Actual (Digitaria sanguinalis; [4]): 56.7%
- % Weed control Burn Down Symptoms Generation, Digitaria sanguinalis, Actual (Digitaria sanguinalis; [5]): 13.3%
- % Weed control Burn Down Symptoms Generation, Digitaria sanguinalis, Actual (Digitaria sanguinalis; [6]): 13.3%
- % Weed control Burn Down Symptoms Generation, Echinochloa colona, Actual (Echinochloa colona; [3]): 8.3%
- % Weed control Burn Down Symptoms Generation, Echinochloa colona, Actual (Echinochloa colona; [4]): 8.3%
- % Weed control Burn Down Symptoms Generation, Echinochloa colona, Actual (Echinochloa colona; [5]): 13%
- % Weed control Burn Down Symptoms Generation, Echinochloa colona, Actual (Echinochloa colona; [6]): 13%
- % Weed control Burn Down Symptoms Generation, Eleucine indica, Actual (Eleucine indica [1]; 15 DAA): 13.3%
- % Weed control Burn Down Symptoms Generation, Eleucine indica, Actual (Eleucine indica [1]; Table 3, 30 DAA): 9.3%
- % Weed control Burn Down Symptoms Generation, Eleucine indica, Actual (Eleucine indica [1]; Table 4, 30 DAA): 9.3%
- % Weed control Burn Down Symptoms Generation, Cyperus rotundus at 15 DAA, Actual (Cyperus rotundus): 15%
- % Weed control Burn Down Symptoms Generation, Cyperus rotundus at 30 DAA, Actual (Cyperus rotundus): 20%
- % Weed control Burn Down Symptoms Generation, Digera sp. at 15 DAA, Actual (Digera sp.): 69.7%
- % Weed control Burn Down Symptoms Generation, Digera sp. at 30 DAA, Actual (Digera sp.): 68.3%
- % Weed control Burn Down Symptoms Generation, Eleucine indica, Actual (Eleucine indica [2]): 13.3%
- Efficacy in weed control beyond 30 days after treatment (weeds): reduced efficacy
